pIC50: −log10 of the molar value. Bounds are passed on as bounds.

In the assay the target is T1, SARM1 (50-724) (Homo sapiens, UniProt Q6SZW1).
T1 construct: Purified SARM1 (50-724) with a final concentration of 2 nM was pre-incubated with a test compound
T1 sequence (Q6SZW1 50-724): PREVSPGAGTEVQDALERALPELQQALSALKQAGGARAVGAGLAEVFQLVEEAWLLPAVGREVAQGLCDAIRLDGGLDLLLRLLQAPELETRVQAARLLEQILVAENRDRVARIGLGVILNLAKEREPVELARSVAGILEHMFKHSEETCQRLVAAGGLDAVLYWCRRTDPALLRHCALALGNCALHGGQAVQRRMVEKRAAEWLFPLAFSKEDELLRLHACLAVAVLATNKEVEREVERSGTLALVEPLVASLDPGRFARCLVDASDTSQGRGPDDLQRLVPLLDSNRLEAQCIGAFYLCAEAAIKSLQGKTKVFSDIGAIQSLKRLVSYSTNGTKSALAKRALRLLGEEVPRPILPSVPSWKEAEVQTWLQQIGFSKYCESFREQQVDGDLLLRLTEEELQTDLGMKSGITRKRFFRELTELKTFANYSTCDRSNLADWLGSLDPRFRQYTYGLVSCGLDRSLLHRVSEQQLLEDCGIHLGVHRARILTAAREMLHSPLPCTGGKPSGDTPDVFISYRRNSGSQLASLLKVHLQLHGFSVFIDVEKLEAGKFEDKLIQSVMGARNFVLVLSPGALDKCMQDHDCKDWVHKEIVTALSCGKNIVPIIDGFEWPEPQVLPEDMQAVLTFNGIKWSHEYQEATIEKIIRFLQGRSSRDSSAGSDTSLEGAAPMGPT
Description: SARM1 (50-724) enzymatic assay (LC-MS/MS). Particulars: Purified SARM1 (50-724) 2 nM, NMN as activator, NAD+ as substrate, 1 h at room temperature, read-out: IC50 (SARM1 inhibitory activity). The assay is classed as biochemical. The method, boiled down:
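Human SARM1 (50-724), 2 nM, pre-incubated 15 min at room temperature with compound in Dulbecco's PBS. Reaction started with 200 µM NMN (activator) plus […] NAD^+ substrate, run 1 h at room temperature, quenched with 70% acetonitrile. Turnover quantified by LC-MS/MS; IC50 reported.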
By pIC50 is commonly meant the negative decadic logarithm of the IC50, by convention in mol/L. Turning to `Cc1ccc2[nH]c(-c3nncn3C3CCCC3)c(CO)c2c1` [Compound 11, [2-(4-cyclopentyl-1,2,4-triazol-3-yl)-5-methyl-1H-indol-3-yl]methanol], the negative logarithm of the IC50 (pIC50) is below 6.00. With `CN1CCC(C)(c2ccc3[nH]c(-c4nncn4-c4ccc(F)c(F)c4Cl)nc3c2)C1=O` (stereo not drawn) [Compound 165, 3-(2-(4-(2-chloro-3,4-difluorophenyl)-4H-1,2,4-triazol-3-yl)-1H-benzo[d]imidazol-5-yl)-1,3-dimethylpyrrolidin-2-one], the pIC50 was 6.30 to 7.00. Regarding `NC(=O)C(F)(F)c1ccc2[nH]c(-c3nncn3-c3ccc(F)c(F)c3Cl)nc2c1` [Compound 463, 2-(2-(4-(2-chloro-3,4-difluorophenyl)-4H-1,2,4-triazol-3-yl)-1H-benzo[d]imidazol-5-yl)-2,2-difluoroacetamide], the pIC50 is at least 7.00. As for `OC1(c2ccc3[nH]c(-c4nncn4-c4ccc(F)c(F)c4Cl)nc3c2)CC1` [Example 134], the pIC50 was at least 7.00. For `Clc1cccc(-n2cnnc2-c2nc3cc(C4COC4)ccc3[nH]2)c1Cl` [Example 55, 2-(4-(2,3-dichlorophenyl)-4H-1,2,4-triazol-3-yl)-5-(oxetan-3-yl)-1H-benzo[d]imidazole] the value was 6.30 to 7.00; for `CS(=O)(=O)CCc1nnc(-c2nc3cc(C(F)(F)F)ccc3[nH]2)n1-c1cccc(Cl)c1Cl` [Compound 138, 2-(4-(2,3-dichlorophenyl)-5-(2-(methylsulfonyl)ethyl)-4H-1,2,4-triazol-3-yl)-5-(trifluoromethyl)-1H-benzo[d]imidazole], at least 7.00; for `CSc1c(Br)ccc2[nH]c(-c3nncn3-c3cccc(Cl)c3Cl)nc12` [Example 72, 5-bromo-2-(4-(2,3-dichlorophenyl)-4H-1,2,4-triazol-3-yl)-4-(methylthio)-1H-benzo[d]imidazole], 6.30 to 7.00. Regarding `CC1(c2ccc3[nH]c(-c4nncn4-c4ccncc4OC(F)(F)F)nc3c2)CC1` [Compound 224, 5-(1-methylcyclopropyl)-2-(4-(3-(trifluoromethoxy)pyridin-4-yl)-4H-1,2,4-triazol-3-yl)-1H-benzo[d]imidazole], the pIC50 was at least 7.00. The figure for `Fc1cc(C2CC23CCOCC3)cc2nc(-c3nncn3-c3cnccc3C(F)(F)F)[nH]c12` (stereo not drawn) [Compound 360, 7-fluoro-5-(6-oxaspiro[2.5]octan-2-yl)-2-[4-[4-(trifluoromethyl)-3-pyridyl]-1,2,4-triazol-3-yl]-1H-benzimidazole] is at least 7.00. For `FC(F)(F)c1ccc2[nH]c(-c3nncn3-c3ccncc3OC3CC3)nc2c1` [Compound 228] the value was below 6.00. For the compound `CN(CC(F)F)c1cc(F)c2[nH]c(-c3nncn3-c3cnccc3C(F)(F)F)nc2c1` [Compound 318, N-(2,2-difluoroethyl)-7-fluoro-N-methyl-2-(4-(4-(trifluoromethyl)pyridin-3-yl)-4H-1,2,4-triazol-3-yl)-1H-benzo[d]imidazol-5-amine], the pIC50 was at least 7.00. As to `COC(=O)C(C)c1ccc2[nH]c(-c3nncn3-c3cccc(Cl)c3Cl)nc2c1` (stereo not drawn) [Example 101, methyl 2-(2-(4-(2,3-dichlorophenyl)-4H-1,2,4-triazol-3-yl)-1H-benzo[d]imidazol-5-yl)propanoate], the pIC50 was at least 7.00. The figure for `N#CC1(c2ccc3[nH]c(-c4nncn4-c4ccc(F)c(F)c4Cl)nc3c2)CC1` [Example 135] is at least 7.00. The figure for `NC(=O)C1(c2ccc3[nH]c(-c4nncn4-c4ccc(F)c(F)c4Cl)nc3c2)CC1` [Compound 171, 1-(2-(4-(2-chloro-3,4-difluorophenyl)-4H-1,2,4-triazol-3-yl)-1H-benzo[d]imidazol-5-yl)cyclopropane-1-carboxamide] is at least 7.00. For `CC(=O)c1ccc2[nH]c(-c3nncn3-c3ccc(F)c(F)c3Cl)nc2c1` [Compound 158, 1-(2-(4-(2-chloro-3,4-difluorophenyl)-4H-1,2,4-triazol-3-yl)-1H-benzo[d]imidazol-5-yl)ethan-1-one] the value was at least 7.00. Turning to `FC1(F)CN(Cc2nnc(-c3nc4cc(C(F)(F)F)ccc4[nH]3)n2-c2cccc(Cl)c2Cl)C1` [Compound 157, 2-(4-(2,3-dichlorophenyl)-5-((3,3-difluoroazetidin-1-yl)methyl)-4H-1,2,4-triazol-3-yl)-5-(trifluoromethyl)-1H-benzo[d]imidazole], the pIC50 was at least 7.00. For `CNC(=O)Cc1nnc(-c2nc3cc(C(F)(F)F)ccc3[nH]2)n1-c1cccc(Cl)c1Cl` [Compound 143, 2-(4-(2,3-Dichlorophenyl)-5-(5-(trifluoromethyl)-1H-benzo[d]imidazol-2-yl)-4H-1,2,4-triazol-3-yl)-N-methylacetamide] the value was at least 7.00; for `Cc1nsc(-n2cnnc2-c2nc3cc(C(F)(F)F)ccc3[nH]2)c1Cl` [Compound 69], 6.30 to 7.00; for `FC(F)(F)c1ccc2[nH]c(-c3nncn3-c3cncnc3C(F)(F)F)nc2c1` [Compound 415, 5-(trifluoromethyl)-2-(4-(4-(trifluoromethyl)pyrimidin-5-yl)-4H-1,2,4-triazol-3-yl)-1H-benzo[d]imidazole], at least 7.00.

For the compound `Cn1cc(OC(F)(F)F)c(-n2cnnc2-c2nc3cc(C(F)(F)F)cc(F)c3[nH]2)cc1=O` [Compound 222, 4-(3-(7-fluoro-5-(trifluoromethyl)-1H-benzo[d]imidazol-2-yl)-4H-1,2,4-triazol-4-yl)-1-methyl-5-(trifluoromethoxy)pyridin-2(1H)-one], the pIC50 was at least 7.00.

On to `Clc1cccc(-n2cnnc2-c2nc3cc(-c4cncnc4)ccc3[nH]2)c1Cl` [Example 73, 2-(4-(2,3-dichlorophenyl)-4H-1,2,4-triazol-3-yl)-5-(pyrimidin-5-yl)-1H-benzo[d]imidazole], for which the pIC50 is 6.30 to 7.00. As for `Cn1cc(OC(F)(F)F)c(-n2cnnc2-c2nc3c(F)c(C4CC4)ccc3[nH]2)cc1=O` [Compound 354, 4-(3-(5-cyclopropyl-4-fluoro-1H-benzo[d]imidazol-2-yl)-4H-1,2,4-triazol-4-yl)-1-methyl-5-(trifluoromethoxy)pyridin-2(1H)-one], the pIC50 is at least 7.00.

With `Cn1cc(-c2ccc(Cl)cc2)c(-c2nc3cc(C(F)(F)F)ccc3[nH]2)cc1=O` [Example 98], the pIC50 is below 6.00. The figure for `C[S+]([O-])c1ccc2[nH]c(-c3nncn3-c3cccc(Cl)c3Cl)nc2c1` (stereo not drawn) [Compound 153, 2-(4-(2,3-dichlorophenyl)-4H-1,2,4-triazol-3-yl)-5-(methylsulfinyl)-1H-benzo[d]imidazole] is 6.30 to 7.00; for `FC(F)(F)c1ccc2[nH]c(-c3nnccc3N3CCOCC3)nc2c1` [Compound 457, 4-(3-(5-(trifluoromethyl)-1H-benzo[d]imidazol-2-yl)pyridazin-4-yl)morpholine] it is 6.00 to 6.30.

For the compound `FC(F)(F)Oc1ccccc1-n1cnnc1-c1nc2cc(C(F)(F)F)ccc2[nH]1` [Compound 160], the negative logarithm of the IC50 (pIC50) is at least 7.00. For `FC(F)(F)c1ccc2[nH]c(-c3nncn3-c3cn4nccc4cc3C(F)(F)F)nc2c1` [Compound 311, 5-(trifluoromethyl)-2-(4-(5-(trifluoromethyl)pyrazolo[1,5-a]pyridin-6-yl)-4H-1,2,4-triazol-3-yl)-1H-benzo[d]imidazole] the value was 6.30 to 7.00; for `Cn1cc(-c2cccc(F)c2Cl)c(-c2nc3cc(CC(N)=O)ccc3[nH]2)cc1=O` [Compound 179, 2-(2-(5-(2-chloro-3-fluorophenyl)-1-methyl-2-oxo-1,2-dihydropyridin-4-yl)-1H-benzo[d]imidazol-5-yl)acetamide], 6.30 to 7.00. For `CC(c1cc(F)c2[nH]c(-c3nncn3-c3cnccc3C(F)(F)F)nc2c1)c1nccs1` (single isomer, unassigned) [Compound 433, 2-(1-(7-fluoro-2-(4-(4-(trifluoromethyl)pyridin-3-yl)-4H-1,2,4-triazol-3-yl)-1H-benzo[d]imidazol-5-yl)ethyl)thiazole] the value was at least 7.00; for `FC(F)(F)c1ccc2[nH]c(-c3nnccc3-c3ccncc3C(F)(F)F)nc2c1` [Compound 302, 5-(Trifluoromethyl)-2-(4-(3-(trifluoromethyl)pyridin-4-yl)pyridazin-3-yl)-1H-benzo[d]imidazole], 6.30 to 7.00. For `CS(=O)(=O)Cn1cc(-c2nc3cc(C(F)(F)F)ccc3[nH]2)c(-c2cccc(Cl)c2Cl)n1` [Compound 438, 2-(3-(2,3-dichlorophenyl)-1-((methylsulfonyl)methyl)-1H-pyrazol-4-yl)-5-(trifluoromethyl)-1H-benzo[d]imidazole] the value was below 6.00; for `FC(F)(F)c1ccc2[nH]c(-c3cnsc3-c3cccc(Cl)c3Cl)nc2c1` [Example 92], 6.30 to 7.00. In the case of `Cc1ccc2[nH]c(-c3ccnn3C3CCCC3)nc2c1` [Compound 4, 2-(2-cyclopentylpyrazol-3-yl)-5-methyl-1H-benzimidazole], the pIC50 was 6.00 to 6.30.

The values are drawn from patent publication US20260258064A1 (SIRONAX LTD., priority 2023, published 2026).
